Experimental data reported in US20230340011A1 (Asteroid Therapeutics, priority 2022, published 2023).

How the values were obtained:
[1] = target: SREBP-2 (Homo sapiens (Human), UniProt Q12772); assay: In vitro assay SREBP-2: PathHunter U2OS SREBP-2 Nuclear Translocation Cell Line, U18666A-stimulated; type: cell-based; details: PathHunter U2OS SREBP-2 nuclear translocation cells, U18666A 10 μM, overnight (16 hours)
[2] = target: LXRβ (Homo sapiens (Human), UniProt P55055); assay: In vitro assay LXRβ: PathHunter NHR CHO cells, LXRβ / Steroid Receptor Co-activator Peptide enzyme fragment complementation; type: cell-based; details: PathHunter NHR CHO cells, full-length human LXRβ and SRCP, chemiluminescent signal; read-out: LXRβ PPI
Method in brief: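 Co-activator recruitment measured by chemiluminescence after signal generation. The CHO line carries full-length human LXRβ tagged with ProLink and an SRCP–enzyme acceptor fusion in the nucleus; cells sat overnight at 37° C before testing, in charcoal-dextran filtered serum medium with 1% final vehicle.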

Chain of LXRβ (P55055 whole entry, the tested form may be a part): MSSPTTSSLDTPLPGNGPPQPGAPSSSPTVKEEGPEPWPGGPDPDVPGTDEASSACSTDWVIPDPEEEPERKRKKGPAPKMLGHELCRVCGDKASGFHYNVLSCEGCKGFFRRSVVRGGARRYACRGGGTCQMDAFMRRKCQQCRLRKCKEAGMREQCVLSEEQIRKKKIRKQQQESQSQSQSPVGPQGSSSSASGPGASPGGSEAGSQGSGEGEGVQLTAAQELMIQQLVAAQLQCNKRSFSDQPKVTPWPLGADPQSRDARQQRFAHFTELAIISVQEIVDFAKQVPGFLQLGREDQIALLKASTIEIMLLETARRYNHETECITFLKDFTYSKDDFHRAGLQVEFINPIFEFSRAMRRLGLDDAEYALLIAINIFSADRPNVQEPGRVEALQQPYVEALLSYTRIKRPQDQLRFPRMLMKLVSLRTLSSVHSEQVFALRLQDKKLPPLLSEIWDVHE

Row | Structure (SMILES) | IC50 [1] [µM] | EC50 [2] [µM]
1 | COc1cncc(N2CCN(C(=O)CC[C@@H](C)[C@H]3CC[C@H]4[C@@H]5CC=C6C[C@@H](O)CC[C@]6(C)[C@H]5CC[C@]34C)CC2)c1 [Example 660, (R)-4-((3S,8S,9S,10R,13R,14S,17R)-3-hydroxy-10,13-dimethyl-2,3,4,7,8,9,10,11,12,13,14,15,16,17-tetradecahydro-1H-cyclopenta[a]phenanthren-17-yl)-1-(4-(5-methoxypyridin-3-yl)piperazin-1-yl)pentan-1-one] | < 0.25 | > 10
2 | Cc1cncc(N2CCN(C(=O)CC[C@@H](C)[C@H]3CC[C@H]4[C@@H]5CC=C6C[C@@H](O)CC[C@]6(C)[C@H]5CC[C@]34C)CC2)c1 [Example 661, (R)-4-((3S,8S,9S,10R,13R,14S,17R)-3-hydroxy-10,13-dimethyl-2,3,4,7,8,9,10,11,12,13,14,15,16,17-tetradecahydro-1H-cyclopenta[a]phenanthren-17-yl)-1-(4-(5-methylpyridin-3-yl)piperazin-1-yl)pentan-1-one] | < 0.25 | > 10
3 | COc1cncc(N2CCN(C(=O)CC[C@@H](C)[C@H]3CC[C@H]4[C@@H]5CC=C6C[C@@H](O)CC[C@]6(C)[C@H]5CC[C@]34C)CC2)n1 [Example 662, (R)-4-((3S,8S,9S,10R,13R,14S,17R)-3-hydroxy-10,13-dimethyl-2,3,4,7,8,9,10,11,12,13,14,15,16,17-tetradecahydro-1H-cyclopenta[a]phenanthren-17-yl)-1-(4-(6-methoxypyrazin-2-yl)piperazin-1-yl)pentan-1-one] | < 0.25 | > 10
4 | C[C@H](CCC(=O)N1CCN(c2cc(N(C)C)ncn2)CC1)[C@H]1CC[C@H]2[C@@H]3CC=C4C[C@@H](O)CC[C@]4(C)[C@H]3CC[C@]12C [Example 663, (R)-1-(4-(6-(dimethylamino)pyrimidin-4-yl)piperazin-1-yl)-4-((3S,8S,9S,10R,13R,14S,17R)-3-hydroxy-10,13-dimethyl-2,3,4,7,8,9,10,11,12,13,14,15,16,17-tetradecahydro-1H-cyclopenta[a]phenanthren-17-yl)pentan-1-one] | < 0.25 | > 10
5 | CC1CN(C(=O)N2CCN(C(=O)CC[C@@H](C)[C@H]3CC[C@H]4[C@@H]5CC=C6C[C@@H](O)CC[C@]6(C)[C@H]5CC[C@]34C)CC2)C1 [Example 664, (R)-4-((3S,8S,9S,10R,13R,14S,17R)-3-hydroxy-10,13-dimethyl-2,3,4,7,8,9,10,11,12,13,14,15,16,17-tetradecahydro-1H-cyclopenta[a]phenanthren-17-yl)-1-(4-(3-methylazetidine-1-carbonyl)piperazin-1-yl)pentan-1-one] | < 0.25 | > 10
6 | C[C@H](CCC(=O)N1CCN(C(=O)N2CC[C@@H]2C)CC1)[C@H]1CC[C@H]2[C@@H]3CC=C4C[C@@H](O)CC[C@]4(C)[C@H]3CC[C@]12C [Example 665, (R)-4-((3S,8S,9S,10R,13R,14S,17R)-3-hydroxy-10,13-dimethyl-2,3,4,7,8,9,10,11,12,13,14,15,16,17-tetradecahydro-1H-cyclopenta[a]phenanthren-17-yl)-1-(4-((S)-2-methylazetidine-1-carbonyl)piperazin-1-yl)pentan-1-one] | < 0.25 | > 10
7 | C[C@H](CCC(=O)N1CCN(C(=O)N2CCC[C@@H]2C)CC1)[C@H]1CC[C@H]2[C@@H]3CC=C4C[C@@H](O)CC[C@]4(C)[C@H]3CC[C@]12C [Example 666, (R)-4-((3S,8S,9S,10R,13R,14S,17R)-3-hydroxy-10,13-dimethyl-2,3,4,7,8,9,10,11,12,13,14,15,16,17-tetradecahydro-1H-cyclopenta[a]phenanthren-17-yl)-1-(4-((S)-2-methylpyrrolidine-1-carbonyl)piperazin-1-yl)pentan-1-one] | < 0.25 | > 10
